According to patent USRE38132E1, “Phenylpyrrolidines, phenylimidazolidines,3-phenyl-1,3-oxizolidines and 3-phenyl-1,3-thiazolidines and their use in the treatment of inflammatory disease” (Boehringer Ingelheim Pharmaceuticals, Inc., priority 1997, dated 2003):
Like-named read-outs stand apart in the source and are kept apart here.

How the values were obtained:
[1] = target: T1, interaction of ICAM-1 with the Leukointegrin CD18/CD11a (LFA-1) (Homo sapiens, UniProt P05107+P20701); experiment: Assay to determine inhibition of LFA-1 binding to ICAM-1 (immunopurified LFA-1 on plate-bound sICAM-1, ELISA readout)
T1 construct: endogenous in cells; sICAM-1: made in house, secreted from transfected CHO DUX cells

[2] = system: cell bound form of LFA-1 (CD18, CD11a) with ICAM-1, SKW3 cells; experiment: Inhibition of SKW3 cell binding to ICAM-1 (PMA-stimulated); type: cell-based, human; details: Homo sapiens, read-out: Assay to Detect SKW3 Cells Binding to ICAM IC50
Method in brief: (§1)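 Compound-treated, PMA-stimulated human T-cell line SKW3 (50 μg/mL PMA final) allowed to adhere for 2 h at 37° C to wells coated with sICAM-1 at 40 μg/mL or fibronectin at 100 μg/mL. After gentle RPMI wash, 50% inhibition concentration or range reported in μM.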

[3] = system: cell bound fibronectin receptor (VLA4) with fibronectin, SKW3 cells; experiment: Inhibition of SKW3 cell binding to fibronectin (selectivity counter-assay); type: cell-based, human; details: for IC50: Homo sapiens, SKW3, values marked c: no inhibition observed up to highest dose, read-out: Assay to Detect SKW3 Cells Binding to FIBRONECTIN IC50
Method in brief: as §1

[4] = system: LFA-1 dependent aggregation of JY cells; experiment: JY cell homotypic aggregation assay (PMA-stimulated); type: cell-based, human; details: Homo sapiens
Method in brief: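 Homotypic aggregation of EBV-transformed JY cells, stimulated by phorbol myristate acetate ([…]), scored visually over time in compound presence at 2·10^5 cells/well in serum-supplemented RPMI 1640. Result given as μM concentration or range inhibiting binding by 50%.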

[5] = values marked e approximated from incomplete dose-response curve
[6] = SKW3, values marked c: no inhibition observed up to highest dose
[7] = values marked c: no inhibition observed up to highest dose
[8] = No inh = no inhibition observed up to highest dose, exact quantification not always possible due to intrinsic toxicity

T1 sequence (P20701 26-1170): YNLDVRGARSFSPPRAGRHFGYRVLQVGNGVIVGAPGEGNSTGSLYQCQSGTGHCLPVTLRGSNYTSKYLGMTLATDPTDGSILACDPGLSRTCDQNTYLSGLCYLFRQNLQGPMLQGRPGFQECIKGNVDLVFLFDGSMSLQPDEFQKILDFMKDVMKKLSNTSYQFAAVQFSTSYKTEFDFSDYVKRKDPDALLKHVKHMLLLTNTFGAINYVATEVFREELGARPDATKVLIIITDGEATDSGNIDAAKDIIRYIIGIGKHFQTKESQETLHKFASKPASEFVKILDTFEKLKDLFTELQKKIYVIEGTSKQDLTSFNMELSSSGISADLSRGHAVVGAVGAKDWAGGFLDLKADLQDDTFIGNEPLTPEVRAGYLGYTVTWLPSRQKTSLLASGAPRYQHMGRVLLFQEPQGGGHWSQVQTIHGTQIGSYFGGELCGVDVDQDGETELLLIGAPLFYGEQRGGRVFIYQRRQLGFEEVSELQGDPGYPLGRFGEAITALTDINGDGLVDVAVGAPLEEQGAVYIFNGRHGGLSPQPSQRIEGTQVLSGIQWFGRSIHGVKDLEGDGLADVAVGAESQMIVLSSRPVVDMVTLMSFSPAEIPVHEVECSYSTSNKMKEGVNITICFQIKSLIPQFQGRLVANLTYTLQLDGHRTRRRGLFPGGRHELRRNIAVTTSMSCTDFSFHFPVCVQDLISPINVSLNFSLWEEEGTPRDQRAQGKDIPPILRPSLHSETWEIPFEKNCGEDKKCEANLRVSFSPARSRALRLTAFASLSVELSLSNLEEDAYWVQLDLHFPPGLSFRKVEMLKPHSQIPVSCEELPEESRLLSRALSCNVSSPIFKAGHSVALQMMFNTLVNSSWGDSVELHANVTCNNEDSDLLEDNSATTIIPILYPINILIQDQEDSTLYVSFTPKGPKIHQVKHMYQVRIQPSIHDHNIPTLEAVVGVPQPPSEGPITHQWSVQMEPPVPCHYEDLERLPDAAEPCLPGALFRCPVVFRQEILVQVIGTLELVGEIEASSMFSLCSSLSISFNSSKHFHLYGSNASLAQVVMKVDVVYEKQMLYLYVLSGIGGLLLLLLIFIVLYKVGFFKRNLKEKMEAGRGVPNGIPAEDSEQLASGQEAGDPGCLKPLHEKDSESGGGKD
T1 sequence (P05107 23-769): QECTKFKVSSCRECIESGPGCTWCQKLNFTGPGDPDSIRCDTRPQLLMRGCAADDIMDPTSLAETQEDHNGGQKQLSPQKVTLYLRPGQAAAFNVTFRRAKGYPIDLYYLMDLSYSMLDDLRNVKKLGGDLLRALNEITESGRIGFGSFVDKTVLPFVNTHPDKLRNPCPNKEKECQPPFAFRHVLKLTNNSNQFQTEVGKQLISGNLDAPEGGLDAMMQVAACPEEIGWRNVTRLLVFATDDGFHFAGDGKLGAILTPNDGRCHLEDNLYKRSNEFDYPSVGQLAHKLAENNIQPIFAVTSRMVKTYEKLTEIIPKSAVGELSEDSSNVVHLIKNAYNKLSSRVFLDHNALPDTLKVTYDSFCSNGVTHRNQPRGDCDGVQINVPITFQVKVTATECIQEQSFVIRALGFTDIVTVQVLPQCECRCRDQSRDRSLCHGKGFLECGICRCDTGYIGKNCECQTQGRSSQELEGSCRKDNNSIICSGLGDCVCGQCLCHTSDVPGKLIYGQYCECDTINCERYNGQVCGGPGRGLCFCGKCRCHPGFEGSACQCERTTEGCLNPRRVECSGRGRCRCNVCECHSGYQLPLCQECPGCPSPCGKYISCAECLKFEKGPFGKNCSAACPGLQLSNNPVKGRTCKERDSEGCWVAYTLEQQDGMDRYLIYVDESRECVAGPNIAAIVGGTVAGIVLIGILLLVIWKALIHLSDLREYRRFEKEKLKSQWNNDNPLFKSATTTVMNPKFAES

SMILES	Kd [1, 5]	IC50 [2, 6]	Assay to Detect SKW3 Cells Binding to FIBRONECTIN IC50 [3, 7]	IC50 [4]	Cellular Toxicity Assay MTT LD50 (SKW3 cells)	IC50 [3]	Kd [1]	IC50 ([2]; SKW3)	Assay to Detect SKW3 Cells Binding to FIBRONECTIN IC50 [3, 8]
C[C@@]1(Cc2ccc(Br)cc2)C(=O)N(c2cc(Cl)cc(Cl)c2)C(=O)N1Cc1cccnc1 [Example 111]	0.19 µM	3 µM	No inh^c	75 µM	36 µM	–	–	–	–
CC(=O)CN1C(=O)N(c2cc(Cl)cc(Cl)c2)C(=O)[C@@]1(C)Cc1ccc(Br)cc1 [Example 117]	1.09 µM	12 µM	–	2.2 µM	12 µM	12 µM	–	–	–
CC1(Cc2ccc(Br)cc2)NC(=O)N(c2cc(Cl)cc(Cl)c2)C1=S (stereo not shown) [Example 81]	0.08 µM	1 to 3 µM	No inh^c	6.3 µM	25 to 50 µM	–	–	–	–
C[C@]1(Cc2cc(Br)cc(Br)c2)NC(=O)N(c2cc(Cl)cc(Cl)c2)C1=O [Example 40]	0.48 µM	50 to 100 µM	–	25 µM	50 to 100 µM	50 to 100 µM	–	–	–
C[C@@]1(Cc2ccc(Br)cc2)C(=O)N(c2cc(Cl)cc(Cl)c2)C(=O)N1Cc1cccc(C(=N)N)c1 [Example 243]	–	–	–	3.1 µM	10 to 20 µM	–	0.11 µM	5 to 6 µM	No inh^c
C[C@@]1(Cc2ccc(Br)cc2)C(=O)N(c2cc(Cl)cc(Cl)c2)C(=O)N1Cc1ccc(C(=O)O)cc1 [Example 228]	–	–	–	1.6 µM	50 to 100 µM	–	0.41 µM	12 to 25 µM	No inh^c
C[C@@]1(Cc2ccc(Br)cc2)C(=O)N(c2cc(Cl)cc(Cl)c2)C(=O)N1Cc1ccccc1O [Example 247]	–	–	–	2.3 µM	40 to 80 µM	–	0.23 µM	1.5 to 3 µM	No inh^c
CCC1(Cc2ccccc2)C(=O)N(c2cc(Cl)cc(Cl)c2)C(=O)N1C (stereo not shown) [Example 93]	1.27 µM	> 100 µM	No inh^c	13 µM	100 to 200 µM	–	–	–	–
C[C@@]1(Cc2ccc(Br)cc2)C(=O)N(c2cc(Cl)cc(Cl)c2)C(=O)N1C1CCNCC1 [Example 224]	–	–	–	3.1 µM	<25 µM	–	0.28 µM	5 to 10 µM	No inh^c
C[C@@]1(Cc2ccc(Br)cc2)C(=O)N(c2cc(Cl)cc(Cl)c2)C(=O)N1CCCCCNC(=N)N [Example 264]	–	–	–	0.4 µM	12 to 24 µM	–	0.12 µM	2 to 5 µM	No inh^c
CC(=O)N1C(=O)N(c2cc(Cl)cc(Cl)c2)C(=O)[C@@]1(C)Cc1ccc([N+](=O)[O-])cc1 [Example 135]	0.2 µM	25 µM	No inh^c	1.7 µM	>400 µM	–	–	–	–
CN1CCC(N2C(=O)N(c3cc(Cl)cc(Cl)c3)C(=O)[C@@]2(C)Cc2ccc(Br)cc2)CC1 [Example 37]	0.16 µM	5 to 10 µM	–	1.6 µM	<13 µM	> 19 µM	–	–	–
CN1C(=O)N(c2cc(Cl)cc(Cl)c2)C(=O)C1(CCO)Cc1ccc(Br)cc1 (stereo not shown) [Example 244]	–	–	–	2.2 µM	200 to 400 µM	–	3.98 µM	4 to 8 µM	No inh^c
CC1(Cc2ccccc2)NC(=O)N(c2cc(Cl)cc(Cl)c2)C1=O (stereo not shown) [Example 18]	0.76 µM	32 to 63 µM	–	6 µM	125 to 250 µM	> 125 µM	–	–	–
C[C@@]1(Cc2ccc(Br)cc2)C(=O)N(c2cc(Cl)cc(Cl)c2)C(=O)N1CCCCNC(=N)N [Example 263]	–	–	–	0.8 µM	20 to 40 µM	–	0.09 µM	0.8 to 1.6 µM	No inh^c
C[C@]1(Cc2ccc(Br)cc2)NC(=O)N(c2cc(Cl)c(Cl)c(Cl)c2)C1=O [Example 43]	0.17 µM	3 to 6 µM	No inh^c	1.8 µM	25 to 50 µM	–	–	–	–
C[C@]1(Cc2ccc(-c3cccnc3)cc2)NC(=O)N(c2cc(Cl)cc(Cl)c2)C1=O [Example 190]	0.43 µM	6 to 12 µM	No inh^c	1.4 µM	50 to 100 µM	–	–	–	–
CCCC1(Cc2ccccc2)C(=O)N(c2cc(Cl)cc(Cl)c2)C(=O)N1C (stereo not shown) [Example 94]	0.74 µM	50 to 100 µM	No inh^c	25 µM	200 µM	–	–	–	–
CN1C(=O)N(c2cc(Cl)cc(Cl)c2)C(=O)[C@@]1(C)Cc1ccc(C#N)cc1 [Example 127]	0.05 µM	0.8 to 1.6 µM	No inh^c	0.1 µM	125 to 250 µM	–	–	–	–
C[C@@]1(Cc2ccc(Br)cc2)C(=O)N(c2cc(Cl)cc(Cl)c2)C(=O)N1C1CCN(CC(=O)O)CC1 [Example 237]	–	–	–	0.1 µM	50 to 100 µM	–	0.13 µM	1 to 2 µM	No inh^c
